Results reported in PMC8700061, “Fragment-Sized and Bidentate (Immuno)Proteasome Inhibitors Derived from Cysteine and Threonine Targeting Warheads” (Cells, 2021).
Marks after values point to notes of the source that are not given here.

Legend:
[1] = UV-Vis-based stability assay in buffer; assay type: physicochemical; conditions: after 1 h, assay buffer pH 7.4, 37 °C, 50 µM
Description: The aqueous stability of all compounds was determined spectrophotometrically by following the changes in the absorption spectra of the compounds. The buffer solution (50 mM Tris-HCl, 0.5 mM EDTA, pH 7.4) was pre-incubated at 37 °C. Aliquots of the compounds studied (1 mM in DMSO) were transferred to a 96-well flat-bottom UV-transparent microplate (Corning, CLS3635, Corning Inc, Corning, NY, USA) containing the buffer solution to obtain a 50 μM solution containing 5% DMSO (final volume, 300 μL). The plate was incubated without lid at 37 °C in a plate reader (Synergy H4, BioTek Instruments, Inc., Santa Clara, CA, USA) and the absorbance spectrum (244–400 nm) was acquired in sweep mode after 0, 15, 30, 60, 120, 180, and 240 min using a discontinuous kinetic procedure in Gen5 software (BioTek Instruments, Inc., Santa Clara, CA, USA). The time required to read the entire plate was 3 min. To determine the baseline, the compound solution was replaced with pure DMSO and subtracted from each reading. Compounds with an absorbance maximum of less than 0.20 AU were not evaluated using these assays due to the high experimental error. For other compounds, the relative absorbance difference between the first time point and 60 min at the most responsive wavelength was calculated. If the relative absorbance difference for the compound in the buffer was below 0.1, between 0.1–0.2, and above 0.2, the compound was classified as stable, intermediate, and unstable, respectively.

β5i subunit of human iCP = molecular target: T1, β5i subunit of human iCP (Homo sapiens, UniProt P20618+P28062); experiment: Inhibition of β5i activity (RA at 10 µM, IC50, IC50 shift), Suc-LLVY-AMC; assay type: biochemical; conditions: for IC50 / RA (%) at 10 µM, β5i: 30 min pre-incubation, SDS activator; for IC50: read-out: IC50 (µM), β5i; for RA (%) at 10 µM, β5i: 10 µM compound; for Group efficiency (GE): ΔpIC50/ΔNheavy with compound 1 as reference
T1 construct: purchased Boston Biochem, Inc., Cambridge, MA, USA
Description: (§1) Residual activity measurements were performed at 10 μM final concentrations in the assay buffer (0.01% SDS, 50 mM Tris-HCl, 0.5 mM EDTA, pH 7.4). Stock solutions of the compounds were prepared in DMSO. To 50 μL of each compound in buffer, 25 μL of 0.8 nM human iCP or human cCP (both from Boston Biochem, Inc., Cambridge, MA, USA) were added. After incubation at 37 °C for 30 min, the reaction was started by adding of 25 μL of 100 μM relevant fluorogenic substrate: acetyl-Nle-Pro-Nle-Asp-AMC (Ac-nLPnLD-AMC, (Bachem, Bubendorf, Switzerland)) for β1, acetyl-Pro-Ala-Leu-7-amino-4-methylcoumarin (Ac-PAL-AMC, (Boston Biochem, Inc., Cambridge, MA, USA)) for β1i, t-butyloxycarbonyl-Leu-Arg-Arg-7-amino-4-methylcoumarin (Boc-LRR-AMC, (Bachem, Bubendorf, Switzerland)) for β2 and β2i, succinyl-Leu-Leu-Val-Tyr-7-amino-4-methylcoumarin (Suc-LLVY-AMC) (Bachem, Bubendorf, Switzerland) for β5 and β5i. Reaction progress was recorded on BioTek Synergy HT microplate reader by monitoring fluorescence at 460 nm (λex = 360 nm) for 90 min at 37 °C. The initial linear ranges were used to calculate velocity and determine residual activity. In the case of evaluation of β1, βi, β2, and β2i activities, the assay buffer was modified by replacing SDS with the proteasomal activator PA28α (Boston Biochem, Inc., Cambridge, MA, USA).
Final assay mixtures contained 0.2 nM human iCP or 0.2 nM human cCP in assay buffer (0.01% SDS (or PA28α in cases of β1, β1i subunits), 50 mM Tris-HCl, 0.5 mM EDTA, pH 7.4). Inhibitors were dissolved in DMSO and added to the black 96-well plates for at least eight different concentrations (the final concentration of DMSO was not more than 1%). […] Fluorescence was monitored at 460 nm (λex = 360 nm) for 90 min at 37 °C. The progress of the reactions was recorded and the initial linear ranges were used to calculate the velocity. IC50 values were calculated using GraphPadPrism (GraphPad Software, San Diego, CA, USA) and are means from at least three independent determinations.

β5 subunit of human cCP = molecular target: T2, β5 subunit of human cCP (Homo sapiens, UniProt P20618+P28074); experiment: Inhibition of β5 activity (RA, IC50), Suc-LLVY-AMC; assay type: biochemical; conditions: 30 min pre-incubation, SDS
T2 construct: purchased Boston Biochem, Inc., Cambridge, MA, USA
Description: as §1
(§2) Final assay mixtures contained 0.2 nM human iCP or 0.2 nM human cCP in assay buffer (0.01% SDS (or PA28α in cases of β1, β1i subunits), 50 mM Tris-HCl, 0.5 mM EDTA, pH 7.4). Inhibitors were dissolved in DMSO and added to the black 96-well plates for at least eight different concentrations (the final concentration of DMSO was not more than 1%). After 30 min of incubation at 37 °C, the reaction was started by adding the substrate Suc-LLVY-AMC (for β5 and β5i) or Ac-nLPnLD-AMC (for β1) or Ac-PAL-AMC (for β1i). Fluorescence was monitored at 460 nm (λex = 360 nm) for 90 min at 37 °C. The progress of the reactions was recorded and the initial linear ranges were used to calculate the velocity. IC50 values were calculated using GraphPadPrism (GraphPad Software, San Diego, CA, USA) and are means from at least three independent determinations.

[2] = HPLC-based stability assay in PBS; assay type: physicochemical; conditions: PBS pH 7.4
Description: (§3) GSH reactivity assay was performed as described by Petri et al.; 500 μM solution of compound (PBS buffer pH 7.4, 10% MeCN, 250 μL) with 200 μM solution of indoprofen as internal standard were added to 10 mM GSH solution (dissolved in PBS buffer, 250 μL) in a 1:1 ratio. The final concentration was 250 μM compound, 100 μM indoprofen, 5 mM GSH and 5% MeCN (500 μL). The final mixture was analyzed by HPLC after 0, 1, 2, 4, 8, 12, 24, 48, and 72 h. The degradation kinetics were also studied using the method described in [24], except that pure PBS buffer was used instead of GSH solution. In this experiment, the final concentration of the mixture was 250 μM fragment, 100 μM indoprofen and 5% MeCN. The area under the curve (AUC) values were determined by integrating the HPLC spectra and then corrected with the internal standard.

GSH = experiment: HPLC-based GSH reactivity assay; assay type: physicochemical; conditions: 5 mM glutathione (GSH) in PBS buffer; 250 µM compound, 5 mM GSH, PBS pH 7.4; read-out: Reactivity with GSH (HPLC-based assay), t1/2
Description: as §3, with “The final concentration was 250 μM compound, 100 μM indoprofen, 5 mM GSH and 5% MeCN (500 μL).” left out, “In this experiment, the final concentration of the mixture was 250 μM fragment, 100 μM indoprofen and 5% MeCN.” left out

β1i subunit of human iCP = molecular target: T3, β1i subunit of human iCP (Homo sapiens, UniProt P28065+P40306); experiment: Inhibition of β1i activity (RA, IC50), Ac-PAL-AMC; assay type: biochemical; conditions: PA28α; for IC50: 30 min pre-incubation
T3 construct: purchased Boston Biochem, Inc., Cambridge, MA, USA
Description: as §1, §2

β1 subunit of human cCP = molecular target: T4, β1 subunit of human cCP (Homo sapiens, UniProt P28072+Q99436); experiment: Inhibition of β1 activity (RA, IC50), Ac-nLPnLD-AMC; assay type: biochemical; conditions: PA28α; for β1 (RA [%]): 10 µM, Table 3
T4 construct: purchased Boston Biochem, Inc., Cambridge, MA, USA
Description: as §1, §2

β2i subunit of human iCP = molecular target: T5, β2i subunit of human iCP (Homo sapiens, UniProt P40306+P49720); experiment: Residual β2i activity, Boc-LRR-AMC; assay type: biochemical; conditions: 10 µM, PA28α
T5 construct: purchased Boston Biochem, Inc., Cambridge, MA, USA
Description: as §1

β2 subunit of human cCP = molecular target: T6, β2 subunit of human cCP (Homo sapiens, UniProt P49720+Q99436); experiment: Residual β2 activity, Boc-LRR-AMC; assay type: biochemical; conditions: 10 µM, PA28α
T6 construct: purchased Boston Biochem, Inc., Cambridge, MA, USA
Description: as §1

Compound | Stability in Buffer (UV-Vis-based assay) [1] | Stability in Buffer (HPLC-based assay) [2] | further results
N#Cc1nc2c(N)cccc2o1 [Compound 20] | stable ^c (relative absorbance difference for the compound in the buffer was below 0.1) |  | 
CC(C)C[C@H](NC(=O)CCCCn1c(C#N)nc2ccccc21)B1O[C@@H]2C[C@@H]3C[C@@H](C3(C)C)[C@]2(C)O1 [Compound 32] | intermediate (between 0.1–0.2) | stable | IC50 (β5i subunit of human iCP): 13 ± 2 µM; IC50 (β5 subunit of human cCP): 1.6 ± 0.8 µM
COc1ccc2oc(C#N)nc2c1 [Compound 7] | stable ^c,d (relative absorbance difference for the compound in the buffer was below 0.1) | stable ^c,d | RA (%) at 10 µM, β5i (β5i subunit of human iCP): 84 ± 11%; RA (%) at 10 µM, β5i (β5i subunit of human iCP; listed as 5-OMe): 84%; Group efficiency (GE) (β5i subunit of human iCP): 0.01; half-life at 250 µM (GSH): < 3 min
N#Cc1nc2cccc([N+](=O)[O-])c2o1 [Compound 19] | stable ^c (relative absorbance difference for the compound in the buffer was below 0.1) |  | RA (%) at 10 µM, β5i (β5i subunit of human iCP): 82 ± 2%
N#Cc1nc2ccc(O)cc2o1 [Compound 12] | intermediate ^c (between 0.1–0.2) |  | 
N#Cc1nc2cc(NC(=O)c3ccccc3)ccc2o1 [Compound 25] | stable ^c,d (relative absorbance difference for the compound in the buffer was below 0.1) | stable ^c,d | 
N#Cc1nc2cc(N)ccc2o1 [Compound 21] | stable ^c (relative absorbance difference for the compound in the buffer was below 0.1) |  | 
CC(C)C[C@H](NC(=O)Cn1c(C#N)nc2ccccc21)B(O)O [Compound 33] | unstable ^b,c (above 0.2) | unstable ^b,c | 
CC(C)C[C@H](NC(=O)Cn1c(C#N)nc2ccccc21)B1O[C@@H]2C[C@@H]3C[C@@H](C3(C)C)[C@]2(C)O1 [Compound 29] | unstable ^b,c (above 0.2) | unstable ^b,c | 
N#Cc1nc2ccc([N+](=O)[O-])cc2o1 [Compound 18] | unstable ^c (above 0.2) |  | 
N#Cc1nc2ccc(NC(=O)c3ccccc3)cc2o1 [Compound 26] | unstable (above 0.2) | stable | 
CC(C)C[C@H](NC(=O)[C@H](Cc1ccccc1)NC(=O)c1cnccn1)B(O)O [Bortezomib, reference compound] |  |  | remaining activity at 10 µM (β1i subunit of human iCP; 10 µM, Table 3, read-out: β1i residual activity at 10 µM): 0%; β1 (RA [%]) (β1 subunit of human cCP): 0%; β2i (RA [%]) (β2i subunit of human iCP; Table 3): 16 ± 5%; β2 (RA [%]) (β2 subunit of human cCP; Table 3): 62 ± 9%
N#Cc1nc2cccc(NC(=O)c3ccccc3)c2o1 [Compound 27] | stable ^c (relative absorbance difference for the compound in the buffer was below 0.1) |  | 
CC(C)C[C@H](NC(=O)CCn1c(C#N)nc2ccc(Cl)cc21)B1O[C@@H]2C[C@@H]3C[C@@H](C3(C)C)[C@]2(C)O1 [Compound 37] | intermediate (between 0.1–0.2) | stable | IC50 (β5i subunit of human iCP): 1.6 ± 1.3 µM; β5 (RA [%]) at 10 µM (β5 subunit of human cCP): 14 ± 1% ^e
N#Cc1nc2c([N+](=O)[O-])cccc2o1 [Compound 16] | intermediate (between 0.1–0.2) | unstable | 
N#Cc1nc2c(NC(=O)c3ccccc3)cccc2o1 [Compound 24] | stable ^c (relative absorbance difference for the compound in the buffer was below 0.1) |  | 
COc1ccc2nc(C#N)oc2c1 [Compound 8] | intermediate (between 0.1–0.2) | stable | IC50 (β5i subunit of human iCP): 11 ± 6 µM; Group efficiency (GE) (β5i subunit of human iCP): 0.44; β5 (RA [%]) at 10 µM (β5 subunit of human cCP): 74% ^b; IC50 (β1i subunit of human iCP): 69 µM; β1 (RA [%]) (β1 subunit of human cCP): NA (NA, Not active (RA above 90%)); β2i (RA [%]) (β2i subunit of human iCP; Table 3): NA (NA, Not active (RA above 90%)); β2 (RA [%]) (β2 subunit of human cCP; Table 3): NA (NA, Not active (RA above 90%))
CC(C)C[C@H](NC(=O)CCCCn1c(C#N)nc2ccccc21)B(O)O [Compound 36] | stable ^b (relative absorbance difference for the compound in the buffer was below 0.1) |  | IC50 (β5i subunit of human iCP): 59 ± 7 µM; IC50 (β5 subunit of human cCP): 6.4 ± 2.6 µM; IC50 (β1i subunit of human iCP): 4.9 ± 0.4 µM; IC50 (β1 subunit of human cCP; 30 min pre-incubation): 23 ± 6 µM; β2i (RA [%]) (β2i subunit of human iCP; Table 6): NA (NA, Not active (RA above 95%)); β2 (RA [%]) (β2 subunit of human cCP; Table 6): NA (NA, Not active (RA above 95%))
N#Cc1nc2cccc(N)c2o1 [Compound 23] | stable ^c (relative absorbance difference for the compound in the buffer was below 0.1) |  | 
